Assay results published in patent US20250011790A1, “COMBINED TARGETING OF STAT3 AND ULKI TO TREAT GLIOBLASTOMA” (Vanderbilt University, priority 2021, published 2025).

Columns and labels:
ULK1 = molecular target: T1, ULK1 (Homo sapiens, UniProt O75385); test: Western blot of ULK1 signaling (p-ATG14, p-Beclin1, p-ULK1) in MT330 cells; assay type: cell-based; settings: Baf 100 nM, 3 h
T1 sequence (O75385 1-1050): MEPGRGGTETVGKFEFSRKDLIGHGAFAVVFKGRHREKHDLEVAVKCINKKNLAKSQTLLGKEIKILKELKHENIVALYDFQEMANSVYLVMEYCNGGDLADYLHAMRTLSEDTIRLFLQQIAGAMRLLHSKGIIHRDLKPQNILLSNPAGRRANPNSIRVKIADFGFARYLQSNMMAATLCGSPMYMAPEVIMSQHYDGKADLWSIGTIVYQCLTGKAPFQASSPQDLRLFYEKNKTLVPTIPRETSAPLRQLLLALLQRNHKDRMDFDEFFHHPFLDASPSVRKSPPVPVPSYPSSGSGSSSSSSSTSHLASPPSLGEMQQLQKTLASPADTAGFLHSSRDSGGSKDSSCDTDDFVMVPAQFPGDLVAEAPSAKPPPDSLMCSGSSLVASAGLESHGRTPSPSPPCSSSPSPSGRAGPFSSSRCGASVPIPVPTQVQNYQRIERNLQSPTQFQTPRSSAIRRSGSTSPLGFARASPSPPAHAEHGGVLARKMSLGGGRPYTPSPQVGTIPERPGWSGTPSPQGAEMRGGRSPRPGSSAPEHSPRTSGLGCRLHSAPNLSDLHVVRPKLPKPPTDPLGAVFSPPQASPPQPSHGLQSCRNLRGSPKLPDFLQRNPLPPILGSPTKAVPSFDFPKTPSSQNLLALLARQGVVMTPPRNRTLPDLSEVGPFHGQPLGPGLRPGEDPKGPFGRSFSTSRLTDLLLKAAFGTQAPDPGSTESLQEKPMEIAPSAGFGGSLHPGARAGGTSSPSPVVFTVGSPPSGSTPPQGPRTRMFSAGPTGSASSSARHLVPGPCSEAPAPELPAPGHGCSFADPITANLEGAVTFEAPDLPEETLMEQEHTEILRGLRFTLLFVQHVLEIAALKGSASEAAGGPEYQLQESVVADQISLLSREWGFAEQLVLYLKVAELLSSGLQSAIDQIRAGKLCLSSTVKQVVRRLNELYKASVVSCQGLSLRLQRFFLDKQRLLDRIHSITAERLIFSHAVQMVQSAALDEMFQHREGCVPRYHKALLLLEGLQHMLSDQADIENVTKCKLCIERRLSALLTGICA

MT330 cells [1] = test: Immunolocalization of LC3 and p62 in MT330 cells; assay type: cell-based
Method: EV MT330 cells, STAT3-KO, STAT3-KO cells rescued with WT-STAT3, were grown on chamber slides, and treated with or without 1 μM Baf for 48 h. Cells were fixed and immunostained for LC3, p62, and counterstained with DAPI, and analysed by confocal microscopy. Scale bar […].
Cells were cultured in chamber slides (Millipore) to ˜70% confluence and washed with PBS. Cells were fixed in 4% paraformaldehyde and methanol, and permeabilized with 1% Triton X-100. After blocking with 5% goat serum, cells were incubated with anti-rabbit LC3 and anti-mouse p62 antibodies and subsequently stained with Alexa Fluor 488 (goat anti-rabbit) and Alexa Fluor 633 (goat anti-mouse) secondary antibodies, as described previously. 24 DNA was counterstained with Vectashield mounting media with DAPI (Vectra Laboratories). Images were captured on a Zeiss LSM700 laser scanning confocal microscope.

MT330 cells [2] = test: Western blot of LC3-II and p62 (autophagy flux) in MT330 cells; assay type: cell-based
Method: FIGS. 3A to 3H show STAT3-KO activates autophagy through mTOR-independent but Prom1-dependent signalling pathways in MT330 cells. […] Cell lysates were analysed for LC3-I/II, p62 and CathepsinD.
(§1) FIGS. 3B and 3C show quantification of LC3-II/Actin ratio (FIG. 3B) and p62/Actin ratio (FIG. 3C). […] Cell lysates were immunoblotted with the indicated antibodies and beta actin was used as an internal loading control. […] Cell lysates were analyzed by Western blotting using antibodies specific for STAT3, Prom1 and LC3-I/II.
(§2) Total cell lysates were immunoblotted with indicated antibodies with p-Actin serving as a loading control. FIGS. 6B to 6E show quantification of the ratio of phospho- and total-ATG14 (FIG. 6B); phospho- and total-Beclin1 (FIG. 6C); phospho- and total-ULK1 (FIG. 6D); and LC3-II and Actin (FIG. 6E).
(§3) ULK1 knockdown was verified by Western blotting with ULK1 and phospho-ULK1, and cell lysates were analysed for LC3, cleaved caspase-3 with p-Actin as a loading control. FIGS. 7B to 7D show quantification of the ratio of total-ULK1 and Actin (FIG. 7B); LC3-II and Actin (FIG. 7C); active caspase-3 and Actin (FIG. 7D).
(§4) Cell lysates were prepared using mammalian protein extraction buffer (Cell Signaling Technology) and a protease inhibitor cocktail followed by SDS-PAGE. Proteins were transferred to Immobilon-P membranes (Millipore Bedford) and probed with primary antibodies overnight at 4° C. in TBS buffer containing 0.1% Tween-20 and 5% nonfat dry milk (Bio-Rad). Membranes were subsequently incubated with horseradish peroxidase-conjugated secondary antibodies at room temperature for 1 h, and the immunocomplexes were visualized by the ECL detection system (Perkin Elmer) quantified on the Azure Biosystems C500. Membranes were stripped and re-probed for actin or GAPDH as loading controls. Representative Western blots from three experiments are shown. Densitometric analysis of all Western blots was performed using Image J software.

AMPKα = test: Western blot of p-AMPKα T172 in MT330 cells; assay type: cell-based; settings: Baf 100 nM, 3 h
Method: FIGS. 1A to 1H show STAT3 deletion activates autophagy through AMPKα-ULK1-TSC2 signaling pathways in MT330 cells. […] Untreated (UT) cells served as controls. Total cell lysates were prepared and immunoblotted with indicated antibodies. […] Blots were stripped and probed for total-AMPKα. […] Blots were stripped and probed for total-ULK1. […] Blots were stripped and probed with total-TSC2 antibody.
as §4

mTORC1 = test: Western blot of mTOR S2448 and S6 phosphorylation in MT330 cells; assay type: cell-based
Method: as §1, §2, §4

AMPK = settings: cited from earlier work
mTORC1 and AMPK = settings: cited from earlier work
autophagy = settings: cited from earlier work
MT330 cells [3] = test: Cell death ELISA (DNA fragmentation) in MT330 cells; assay type: cell-based; settings: STAT3-KO and mutant expressing cells vs control cells, MRT68921 20 μM, 5 h
Method: as §2, §3
The quantitative DNA fragmentation assay was performed using a cell death ELISA kit as described earlier (Bhattacharya S, et al. Apoptosis. 2014 19(3):451-466). […] Cells were lysed, and an aliquot of the nuclei-free supernatant was placed in streptavidin-coated plates and incubated with anti-histone biotin and anti-DNA peroxidase-conjugated antibodies for 2 h at room temperature. After incubation, the samples were aspirated, and the wells were washed 3 times with incubation buffer. […] The absorbance was read at 405 nm using the SpectraMax iD3 microplate reader (Molecular Devices). Results were expressed as absorbance at 405 nm/mg protein/min.

MT330 cells [4] = test: Caspase-3 cleavage Western blot (apoptosis) in MT330 cells; assay type: cell-based; settings: MRT68921 20 μM, 5 h
Method: as §2, §3
as §4, with “Densitometric analysis of all Western blots was performed using Image J software.” left out

[5] = tested on: hepatocellular carcinoma (HCC) cells; settings: cited from earlier work
[6] = EV MT330 cells, Everolimus (RAD001) 10 μM, 3 h

CO/C1=C\C(C)=C\[C@@H](C)[C@@H](O)[C@@H](C)C/C(C)=C/C=C/[C@H](OC)[C@@H]([C@@H](C)[C@@H](O)[C@H](C)[C@@]2(O)C[C@@H](O)[C@H](C)[C@@H](C(C)C)O2)OC1=O [Bafilomycin, Bafilomycin A1]
ULK1 phosphorylation (ULK1): no effect | LC3 and p62 staining (MT330 cells [1]; EV MT330 cells, Baf 1 μM, 48 h): no effect | LC3+ and p62 puncta formation and co-localization (MT330 cells [1]; STAT3-KO MT330 cells, bafilomycin 48 h): increased | LC3-II levels (MT330 cells [2]; MT330 cells expressing the S727A mutant, Baf 100 nM, 3 h): did not significantly change | p62 accumulation (MT330 cells [2]; STAT3-KO MT330 cells, Baf 100 nM, 3 h): partially increased | LC3-II levels (MT330 cells [2]; STAT3-deleted MT330 cells, Baf 100 nM, 3 h): further increased | LC3-II levels (MT330 cells [2]; control MT330 EV cells, Baf 100 nM, 3 h): no effect | AMPKα phosphorylation (AMPKα): no effect

CO[C@H]1C[C@@H]2CC[C@@H](C)[C@@](O)(O2)C(=O)C(=O)N2CCCC[C@H]2C(=O)O[C@H]([C@H](C)C[C@@H]2CC[C@@H](OCCO)[C@H](OC)C2)CC(=O)[C@H](C)/C=C(\C)[C@@H](O)[C@@H](OC)C(=O)[C@H](C)C[C@H](C)/C=C/C=C/C=C/1C [Everolimus, everolimus]
autophagy induction (LC3-II/Actin ratio) (MT330 cells [2]; [6]): no significant effect | autophagic flux (MT330 cells [2]; cells lacking STAT3 and STAT3-KO cells expressing STAT3 phosphodeficient mutants, Everolimus 10 μM ± Baf 100 nM, 3 h): enhances autophagic flux | mTOR S2448 phosphorylation (mTORC1; [6]): inhibited | pS6K phosphorylation (downstream target of mTORC1) (mTORC1; [6]): inhibited

CCn1c(-c2nonc2N)nc2c(C#CC(C)(C)O)ncc(OC[C@H]3CCCNC3)c21 [GSK690693]
IC50 (AMPK): 50 nM

O=C1Nc2ccc(C(=O)c3ccco3)cc2/C1=C/c1cc(Cl)c(O)c(Cl)c1 [GW406108X]
effect on upstream signaling kinases mTORC1 and AMPK (mTORC1 and AMPK): without affecting | effect on autophagy / autophagic flux (autophagy): blocks autophagic flux

Cl.O=C(NCCCNc1nc(Nc2cccc(CN3CCOCC3)c2)ncc1C1CC1)C1CCC1 [MRT67307 hydrochloride]
effect on autophagy / autophagic flux (autophagy): blocks autophagy

CN1CCc2cc(Nc3ncc(C4CC4)c(NCCCNC(=O)C4CCC4)n3)ccc2C1 [MRT68921]
effect on autophagy / autophagic flux (autophagy): blocks autophagy flux | apoptotic cell death (DNA fragmentation) by ELISA (MT330 cells [3]): significantly increased apoptosis | LC3-II levels (MT330 cells [2]; STAT3-KO cells and Y705F or S727A mutant cells, MRT68921 20 μM, 5 h): significantly increased | autophagy flux (MT330 cells [2]; cells lacking functional STAT3, MRT68921 20 μM ± Baf 100 nM, 5 h): blocks autophagy flux | apoptosis by caspase-3 cleavage (MT330 cells [4]; STAT3-KO and STAT3-mutant expressing lines): induced apoptosis | apoptosis by caspase-3 cleavage (MT330 cells [4]; control EV and WT-STAT3 reconstituted cells): not | mTOR S2448 phosphorylation (mTORC1; MT330 cells, MRT68921 20 μM, 5 h): did not significantly block

COC(=O)c1cc2c(OC(C)C)cc(OC(C)C)cc2[nH]1 [XST-14]
apoptosis in hepatocellular carcinoma (HCC) cells [5]: induces apoptosis | effect on autophagy / autophagic flux (autophagy): induces autophagy inhibition
